The structures appear in SMILES notation.

The test addresses T1, h-Sortilin (Homo sapiens, UniProt Q99523).
T1 sequence (Q99523 78-831): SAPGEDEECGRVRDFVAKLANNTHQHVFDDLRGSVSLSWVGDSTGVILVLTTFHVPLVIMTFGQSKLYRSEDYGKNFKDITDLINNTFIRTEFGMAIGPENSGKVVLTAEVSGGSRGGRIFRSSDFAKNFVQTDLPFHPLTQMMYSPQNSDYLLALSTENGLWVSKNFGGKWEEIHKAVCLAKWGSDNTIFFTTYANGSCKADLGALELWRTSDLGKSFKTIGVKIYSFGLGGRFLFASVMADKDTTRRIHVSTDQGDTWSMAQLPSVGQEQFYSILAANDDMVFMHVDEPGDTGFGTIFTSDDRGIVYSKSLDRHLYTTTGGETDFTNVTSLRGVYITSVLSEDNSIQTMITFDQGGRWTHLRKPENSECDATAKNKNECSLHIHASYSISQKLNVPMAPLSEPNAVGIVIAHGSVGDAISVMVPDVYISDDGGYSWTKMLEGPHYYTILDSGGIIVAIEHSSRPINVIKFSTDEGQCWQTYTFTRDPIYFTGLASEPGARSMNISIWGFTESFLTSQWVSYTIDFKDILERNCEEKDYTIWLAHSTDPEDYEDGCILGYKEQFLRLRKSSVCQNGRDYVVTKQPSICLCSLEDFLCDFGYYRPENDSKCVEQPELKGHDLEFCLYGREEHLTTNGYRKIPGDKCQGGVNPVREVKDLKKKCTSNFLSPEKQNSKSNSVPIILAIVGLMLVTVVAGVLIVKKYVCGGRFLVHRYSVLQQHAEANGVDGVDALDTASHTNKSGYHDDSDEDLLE
Kind of test: Neurotensin scintillation proximity assay (displacement of [3H]-neurotensin binding). Particulars: 150 nM 6his-Sortilin, 5 nM [3H]-Neurotensin; average of at least 2 determinations; read-out: IC50 [3H]Neurotensin SPA. The method, boiled down:
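Compounds pre-incubated 30 min at room temperature with 150 nM 6His-sortilin in HEPES pH 7.4 buffer with NaCl, CaCl2, BSA and Tween-20, then 5 nM [3H]-neurotensin and Ni chelate SPA beads added; read after 6 h. IC50 from 8-point variable-slope fits, mean of at least 2 determinations.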
For orientation: In a scintillation proximity assay essentially only radioactivity close to the scintillant gives light.
Take `CC(C)(C)CC[C@H](NCc1ccc2c(c1)COCC2)C(=O)O` [Example 3, (S)-2-((isochroman-7-ylmethyl)amino)-5,5-dimethylhexanoic acid]: the IC50 was determined as 230 nM. Consider `C[C@@H](N[C@@H](CCC(C)(C)C)C(=O)O)c1ccc2c(c1)CCCO2` [Example 52], for which the IC50 worked out at 260 nM. The value for `C[C@H](N[C@@H](CCC(C)(C)C)C(=O)O)c1ccc2c(c1)CCCO2` [Example 50] was 230 nM.

As to `C[C@@H](N[C@@H](CCC(C)(C)C)C(=O)O)c1ccc2c(c1)OCCC2` [Example 9], the IC50 was 210 nM.

Broadly, the IC50 is the point on the concentration scale where inhibition reaches its midpoint.

Values taken from EP4342530A1, “SORTILIN MODULATORS” (Insusense ApS, priority 2022, dated 2024).
